The conditions of data set [1]: reproductive; oral; feed; reproduction.
Another data set has as its system Anas platyrhynchos. As to conditions: oral.
Another data set relates to Apis mellifera. As to conditions: acute, duration: 48 hours, mortality.
The subject of a further data set is Coturnix coturnix. As to conditions: oral.
In a further data set the test system is Daphnia magna. The following applies: chronic/long-term; duration: 21 days.
The subject of the next data set is Mus musculus. As to conditions: acute; oral; mortality.
The test system of a further data set is Oncorhynchus mykiss. As to conditions: chronic/long-term; duration: 28 days.
The next data set has as its system Oryctolagus sp. As to conditions: developmental; development.
The test system of a further data set is Salmo trutta ssp. fario. As to conditions: acute; duration: 96 hours; mortality.

In brackets after ≈: the same amount, converted by molar mass.

Data on one compound can be found in EPA's ToxValDB 9.5 (doi:10.2903/j.efsa.2009.296r).

For `O=C1C2CC=CCC2C(=O)N1SC(Cl)(Cl)Cl` (stereo not drawn) [Captan], the NOAEL in data set [1] stood at 100 mg/kg-day; with Oryctolagus sp., 30 mg/kg-day; with Rattus norvegicus (developmental, development), 10 mg/kg-day. Further, the LD50 in the data set on Anas platyrhynchos (acute, unspecified, mortality) is above 2000 mg/kg; with Apis mellifera (oral, unspecified), above 100 µg/piece; in the data set with Coturnix coturnix (acute, mortality) it was above 2000 mg/kg; in the data set with Mus musculus, above 2000 mg/kg; with Rattus norvegicus (acute, oral, mortality), above 2000 mg/kg. In addition, the NOEC was found to be 74.4 mg/kg-day in the data set with Anas platyrhynchos (reproductive, unspecified, no effects); 83.2 mg/kg-day with Coturnix coturnix (reproduction developmental, no effects); 0.56 mg/L with Daphnia magna; 0.199 mg/L with Oncorhynchus mykiss; 11.6 mg/kg in the data set with Tagia sp. (chronic/long-term, duration: 8 weeks, reproduction). In addition, the LC50 in the data set on Anas platyrhynchos (short-term, feed, mortality) was above 1040 mg/kg-day; in the data set with Apis mellifera (dermal) it was above 200 µg/piece; in the data set with Coturnix coturnix (acute, diet, mortality) it was above 800 mg/kg-day; in the data set with Salmo trutta ssp. fario, 0.098 µg/mL (≈ 0.326 µM); with Tagia sp. (acute, duration: 14 days, mortality), above 519 mg/kg.

As usually defined, the NOAEL is the highest tested level that showed no adverse finding.
